target: T47D; experiment: (§1) Inhibition of spermidine transport determined in T-47D human breast cancer cells; format: functional, cell-based

Ki [µM]	Structure (SMILES)
1.1	NCCCNCCCCN(CCCN)Cc1ccc(CN(CCCN)CCCCNCCCN)cc1
2.1	NCCCNCCCCNCCCN [SPERMINE]
2.8	NCCCCCN(CCCCCN)Cc1ccc(CN(CCCCCN)CCCCCN)cc1
2.8	NCCCCN(CCCCN)Cc1ccc(CN(CCCCN)CCCCN)cc1
9.4	NCCCCCCN(CCCCCCN)Cc1ccc(CN(CCCCCCN)CCCCCCN)cc1

Further lines, the molecule ahead of its results:

Structure (SMILES)	Ki [µM]
NCCCCN [PUTRESCINE]	> 500
NCCCCNCCCCN	2.7
NCCC(CN)NCc1ccc(CNC(CN)CCN)cc1 (stereo not drawn)	9.3
NCCC(CN)OCc1ccc(COC(CN)CCN)cc1 (stereo not drawn)	12.8
NCCCNCCCN [NORSPERMIDINE]	9.5
NCCCCCNCCCCCN	3.4
NCCCCCCNCCCCCCN	20.9

tested on: T47D; experiment: as §1; format: functional, cell-based

Structure (SMILES)	Km [µM]
NCCCCNCCCN	4.4
